Change data for 21 molecules are collected here from ChEMBL document CHEMBL1150487, “Cyanoguanidine bioisosteres in potassium channel openers: Evaluation of 3,4-disubstituted-1,2,5-thiadiazole-1-oxides” (Bioorg Med Chem Lett, 1996).

What all share (format): functional
For assay [1], the species on record is Rattus norvegicus. In words: Membrane potential change (fluorescence-based in vitro assay using DIBAC4 as indicator) in A-10 smooth muscle cell, to estimate potassium channel opening activity at 0.1 uM.
The species named for assay [2] is Rattus norvegicus. In words: Membrane potential change (fluorescence-based in vitro assay using DIBAC4 as indicator) in A-10 smooth muscle cell, to estimate potassium channel opening activity at 1 uM.
Assay [3] is filed under the species Rattus norvegicus. In words: Membrane potential change (fluorescence-based in vitro assay using DIBAC4 as indicator) in A-10 smooth muscle cell, to estimate potassium channel opening activity at 10 uM.

For the molecule `CCCCNc1n[s+]([O-])nc1Nc1cc(Cl)cc(Cl)c1` (stereo unspecified), the Change is 1.29% in the assay listed under Rattus norvegicus [1], -10.3% in the assay filed under Rattus norvegicus [2] and -44.7% in the assay filed under Rattus norvegicus [3].

As to `[O-][s+]1nc(NCCCCc2ccccc2)c(Nc2cc(Cl)cc(Cl)c2)n1` (stereo unspecified), the Change in the assay listed under Rattus norvegicus [1] is -7.2%; in the assay filed under Rattus norvegicus [2], -6.18%; in the assay filed under Rattus norvegicus [3], 4.02%.

For `CC(C)Nc1n[s+]([O-])nc1Nc1cc(Cl)cc(Cl)c1` (stereo unspecified), the Change in the assay filed under Rattus norvegicus [1] is 2.12%; in the assay filed under Rattus norvegicus [2], -5.37%; in the assay listed under Rattus norvegicus [3] it was -9.36%.

For `[O-][s+]1nc(NCCCc2ccccc2)c(Nc2cc(Cl)cc(Cl)c2)n1` (stereo unspecified), the Change is -19.7% in the assay listed under Rattus norvegicus [2] and 14.1% in the assay listed under Rattus norvegicus [3].

Take `CCCCCNc1n[s+]([O-])nc1Nc1ccccc1` (stereo unspecified): the Change in the assay listed under Rattus norvegicus [1] was -3.76%; in the assay filed under Rattus norvegicus [2], -7.68%; in the assay listed under Rattus norvegicus [3], -5.23%.

As for `CC(C)(C)CNc1n[s+]([O-])nc1Nc1cc(Cl)cc(Cl)c1` (stereo unspecified), the Change in the assay listed under Rattus norvegicus [1] is 1.77%; in the assay filed under Rattus norvegicus [2], 5.58%; in the assay listed under Rattus norvegicus [3] it was 1.84%.

Consider `[O-][s+]1nc(NCCc2ccccc2)c(Nc2cc(Cl)cc(Cl)c2)n1` (stereo unspecified), for which the figures for the Change in the assay listed under Rattus norvegicus [1] and in the assay filed under Rattus norvegicus [2] were -1.01% and -1.29%, respectively.

As to `CCCCCNc1n[s+]([O-])nc1Nc1cc(Cl)cc(Cl)c1` (stereo unspecified), the Change was 8.48% in the assay filed under Rattus norvegicus [1], -10.6% in the assay listed under Rattus norvegicus [2] and -26.3% in the assay filed under Rattus norvegicus [3].

For the molecule `CCCNc1n[s+]([O-])nc1Nc1ccccc1` (stereo unspecified), the figures for the Change in the assay listed under Rattus norvegicus [1], in the assay listed under Rattus norvegicus [2] and in the assay filed under Rattus norvegicus [3] were -3.75%, -4.86% and -1.05%, respectively.

With `[O-][s+]1nc(Nc2cc(Cl)cc(Cl)c2)c(NC2CCC2)n1` (stereo unspecified), the Change is -5.89% in the assay listed under Rattus norvegicus [1], -4.23% in the assay listed under Rattus norvegicus [2] and -21.8% in the assay listed under Rattus norvegicus [3].

Consider `CNc1n[s+]([O-])nc1Nc1cc(Cl)cc(Cl)c1` (stereo unspecified), for which the Change in the assay filed under Rattus norvegicus [1] is -16%; in the assay filed under Rattus norvegicus [2], -25.1%; in the assay listed under Rattus norvegicus [3] it was -33.6%.

`CCC(C)Nc1n[s+]([O-])nc1Nc1cc(Cl)cc(Cl)c1` (stereo unspecified): the Change was -0.43% in the assay filed under Rattus norvegicus [1], 1.42% in the assay filed under Rattus norvegicus [2] and -19% in the assay filed under Rattus norvegicus [3].

`CC(C)CCNc1n[s+]([O-])nc1Nc1cc(Cl)cc(Cl)c1` (stereo unspecified): the Change in the assay listed under Rattus norvegicus [1] is 10.7%; in the assay listed under Rattus norvegicus [2], -12%; in the assay listed under Rattus norvegicus [3], -45.5%.

Turning to `Nc1n[s+]([O-])nc1Nc1cc(Cl)cc(Cl)c1` (stereo unspecified), the Change is 10.2% in the assay filed under Rattus norvegicus [1], -4.81% in the assay filed under Rattus norvegicus [2] and -4.58% in the assay filed under Rattus norvegicus [3].

For `CC(N/C(=N\C#N)Nc1ccncc1)C(C)(C)C` (stereo unspecified), the Change in the assay listed under Rattus norvegicus [1] was -5.89%; in the assay filed under Rattus norvegicus [2], -45.6%; in the assay listed under Rattus norvegicus [3], -57.4%.

As to `[O-][s+]1nc(Nc2cc(Cl)cc(Cl)c2)c(NC2CC2)n1` (stereo unspecified), the Change in the assay listed under Rattus norvegicus [1] was 0.95%; in the assay filed under Rattus norvegicus [2] it was -1.1%; in the assay filed under Rattus norvegicus [3], -3.96%.

`CCCNc1n[s+]([O-])nc1Nc1cc(Cl)cc(Cl)c1` (stereo unspecified): the Change is 8.06% in the assay filed under Rattus norvegicus [1], 5.85% in the assay filed under Rattus norvegicus [2] and -11.1% in the assay listed under Rattus norvegicus [3].

For the molecule `[O-][s+]1nc(NCc2ccccc2)c(Nc2cc(Cl)cc(Cl)c2)n1` (stereo unspecified), the Change in the assay listed under Rattus norvegicus [1] was 7.83%; in the assay listed under Rattus norvegicus [2] it was -0.91%; in the assay filed under Rattus norvegicus [3], 0.84%.

In the case of `[O-][s+]1nc(Nc2cc(Cl)cc(Cl)c2)c(NC2CCCCC2)n1` (stereo unspecified), the Change was 2.05% in the assay listed under Rattus norvegicus [1], -2.39% in the assay listed under Rattus norvegicus [2] and -17.7% in the assay listed under Rattus norvegicus [3].

On to `[O-][s+]1nc(Nc2cc(Cl)cc(Cl)c2)c(NC2CCCC2)n1` (stereo unspecified), for which the Change in the assay listed under Rattus norvegicus [1] is -5.82%; in the assay listed under Rattus norvegicus [2], -1.36%; in the assay filed under Rattus norvegicus [3] it was -4.17%.

As to `CC(C)CNc1n[s+]([O-])nc1Nc1cc(Cl)cc(Cl)c1` (stereo unspecified), the Change in the assay filed under Rattus norvegicus [1] was -1.32%; in the assay filed under Rattus norvegicus [2] it was -3.59%; in the assay listed under Rattus norvegicus [3] it was 10.8%.
